Test results reported in ChEMBL document CHEMBL5113467, “Design, synthesis and evaluation of 2-(2-oxoethyl)pyrimidine-5-carboxamide derivatives as acetylcholinesterase inhibitors” (Bioorg Med Chem Lett, 2022).
Active and inactive are the calls of the source. No cut-off for these calls is given here.

Tests used:
Cholinesterase = Cholinesterase (Homo sapiens, UniProt P06276); experiment: Inhibition of BuChE (unknown origin) using butyrylthiocholine iodide as substrate by DTNB reagent based Ellman's method
Chain of Cholinesterase (P06276 whole entry): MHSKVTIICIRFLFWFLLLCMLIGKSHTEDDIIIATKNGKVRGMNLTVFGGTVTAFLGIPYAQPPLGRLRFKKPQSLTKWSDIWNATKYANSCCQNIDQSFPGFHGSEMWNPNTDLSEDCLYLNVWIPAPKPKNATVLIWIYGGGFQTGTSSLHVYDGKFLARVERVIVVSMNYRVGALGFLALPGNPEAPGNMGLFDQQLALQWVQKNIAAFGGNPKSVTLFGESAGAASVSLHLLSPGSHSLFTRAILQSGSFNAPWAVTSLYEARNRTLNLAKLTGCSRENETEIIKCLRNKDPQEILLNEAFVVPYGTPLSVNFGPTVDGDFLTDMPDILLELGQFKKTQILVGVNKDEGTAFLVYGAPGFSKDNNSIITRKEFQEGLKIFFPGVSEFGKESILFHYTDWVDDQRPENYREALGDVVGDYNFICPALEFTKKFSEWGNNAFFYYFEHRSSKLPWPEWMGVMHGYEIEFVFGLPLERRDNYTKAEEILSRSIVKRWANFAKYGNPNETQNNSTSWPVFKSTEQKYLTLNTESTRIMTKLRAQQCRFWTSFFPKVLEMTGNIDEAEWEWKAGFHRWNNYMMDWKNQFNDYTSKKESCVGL

Acetylcholinesterase [1] = biological target: T1, Acetylcholinesterase (Homo sapiens, UniProt P22303); experiment: Inhibition of AChE (unknown origin) using acetylthiocholine iodide as substrate by DTNB reagent based Ellman's method
T1 sequence (P22303 whole entry): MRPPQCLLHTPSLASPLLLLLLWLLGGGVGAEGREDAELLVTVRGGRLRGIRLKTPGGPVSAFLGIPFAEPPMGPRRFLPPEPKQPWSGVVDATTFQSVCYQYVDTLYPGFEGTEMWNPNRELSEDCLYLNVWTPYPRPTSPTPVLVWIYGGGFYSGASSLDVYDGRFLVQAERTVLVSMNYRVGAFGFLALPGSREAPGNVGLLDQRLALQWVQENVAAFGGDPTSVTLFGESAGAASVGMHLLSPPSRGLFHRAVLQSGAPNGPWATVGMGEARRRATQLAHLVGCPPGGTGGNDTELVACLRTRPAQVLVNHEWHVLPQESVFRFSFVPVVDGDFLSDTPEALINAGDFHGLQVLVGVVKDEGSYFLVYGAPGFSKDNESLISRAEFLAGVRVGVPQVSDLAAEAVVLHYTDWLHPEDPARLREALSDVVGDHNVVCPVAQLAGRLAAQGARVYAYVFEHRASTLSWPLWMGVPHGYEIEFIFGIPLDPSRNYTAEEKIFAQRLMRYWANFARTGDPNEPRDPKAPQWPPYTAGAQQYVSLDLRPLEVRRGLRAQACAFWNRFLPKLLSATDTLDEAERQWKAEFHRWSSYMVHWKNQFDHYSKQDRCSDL

[2] = biological target: 5-hydroxytryptamine receptor 4 (Homo sapiens) (UniProt Q13639); experiment: Displacement of [3H]GR113808 from human 5-HT4 receptor expressed in Chem-1 cell membrane incubated for 60 mins by radiometric scintillation counting analysis relative to control; type: cell membranes; conditions: filed as agonist
Chain of 5-hydroxytryptamine receptor 4 (Homo sapiens) (Q13639 whole entry): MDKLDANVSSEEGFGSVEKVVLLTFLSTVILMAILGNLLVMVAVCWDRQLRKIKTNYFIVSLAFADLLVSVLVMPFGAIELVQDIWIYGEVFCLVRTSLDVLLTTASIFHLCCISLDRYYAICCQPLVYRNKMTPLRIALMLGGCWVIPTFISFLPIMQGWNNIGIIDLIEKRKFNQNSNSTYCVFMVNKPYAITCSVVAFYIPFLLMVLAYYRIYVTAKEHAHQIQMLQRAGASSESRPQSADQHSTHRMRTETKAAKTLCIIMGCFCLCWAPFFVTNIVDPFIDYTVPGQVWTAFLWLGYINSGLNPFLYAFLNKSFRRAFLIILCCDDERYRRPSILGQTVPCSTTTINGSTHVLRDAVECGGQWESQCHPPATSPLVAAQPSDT

Acetylcholinesterase [3] = biological target: T1, Acetylcholinesterase; experiment: Mixed type inhibition of AChE (unknown origin) using acetylthiocholine iodide as substrate by Lineweaver-Burk double reciprocal plot analysis

Molecule `COc1ccc(C(=O)Cc2ncc(C(=O)NC3CCN(Cc4ccccc4)CC3)cn2)cc1` has an IC50 (Cholinesterase) of 3.7 µM and an IC50 (Acetylcholinesterase [1]) of 28 µM.

For `COc1cccc(C(=O)Cc2ncc(C(=O)N(C)CCCOc3ccc([N+](=O)[O-])cc3)cn2)c1`, the IC50 (Cholinesterase) was 2.59 µM and the IC50 (Acetylcholinesterase [1]) was 4 µM.

`COc1ccc(C(=O)Cc2ncc(C(=O)N(C)CCCOc3c(F)c(F)c(F)c(F)c3F)cn2)cc1` was tested, and the IC50 (Cholinesterase) was 28.9 µM and the IC50 (Acetylcholinesterase [1]) was 5.14 µM.

For `CN(CCCOc1ccc([N+](=O)[O-])cc1)C(=O)c1cnc(CC(=O)c2ccccc2)nc1`, the IC50 (Cholinesterase) was 6.08 µM and the IC50 (Acetylcholinesterase [1]) was 9.94 µM.

`COc1ccc(C(=O)Cc2ncc(C(=O)N3CCN(Cc4ccccc4)CC3)cn2)cc1` showed an IC50 (Cholinesterase) of 5.7 µM and an IC50 (Acetylcholinesterase [1]) of 17.3 µM.

`CCOc1ccc(C(=O)Cc2ncc(C(=O)N(C)CCCOc3ccc([N+](=O)[O-])cc3)cn2)cc1` gave an IC50 (Cholinesterase) of 6.66 µM and an IC50 (Acetylcholinesterase [1]) of 6.4 µM.

With `COc1ccc(C(=O)Cc2ncc(C(=O)NCc3ccc(OC)c(OC)c3)cn2)cc1` the IC50 (Cholinesterase) was 30.7 µM and the IC50 (Acetylcholinesterase [1]) was 10 µM.

Molecule `COc1cc(N)c(Cl)cc1C(=O)CCC1CCN(CC2CCCCC2)CC1` has an inhibition [2] of 48.3%.

In the case of `COc1ccc(C(=O)Cc2ncc(C(=O)N(C)CCCOc3ccc([N+](=O)[O-])cc3)cn2)cc1`, the IC50 (Cholinesterase) is reported as 13.1 µM and the IC50 (Acetylcholinesterase [1]) is reported as 4.56 µM.

`COc1ccc(C(=O)Cc2ncc(C(=O)Nc3ccncc3)cn2)cc1` was tested, and the IC50 (Cholinesterase) was 31.4 µM and the IC50 (Acetylcholinesterase [1]) was 17.9 µM.

For `COc1ccc(C(=O)Cc2ncc(C(=O)N(C)CCCOc3ccc([N+](=O)[O-])cc3)cn2)cc1OC`, the IC50 (Cholinesterase) was 5.73 µM and the IC50 (Acetylcholinesterase [1]) was 3.79 µM.

For `COc1ccc(C(=O)Cc2ncc(C(=O)N(C)CCCOc3ccc(OC)c(OC)c3)cn2)cc1`, the IC50 (Cholinesterase) was 8.3 µM and the IC50 (Acetylcholinesterase [1]) was 29.8 µM.

Work on `COc1ccc(C(=O)Cc2ncc(C(=O)N(C)CCCOc3cccc(OC)c3)cn2)cc1` yielded an IC50 (Cholinesterase) of 8.36 µM and an IC50 (Acetylcholinesterase [1]) of 44.9 µM.

`COc1ccc(C(=O)Cc2ncc(C(=O)NCc3cccs3)cn2)cc1` showed an IC50 (Cholinesterase) of 3.45 µM and an IC50 (Acetylcholinesterase [1]) of 30.7 µM.

`CN(CCCOc1ccc([N+](=O)[O-])cc1)C(=O)c1cnc(CC(=O)c2ccc3c(c2)OCO3)nc1` was tested, and the IC50 (Cholinesterase) was 48.4 µM and the IC50 (Acetylcholinesterase [1]) was 0.99 µM.

In the case of `COc1ccc(OCCCN(C)C(=O)c2cnc(CC(=O)c3ccc(OC)cc3)nc2)cc1`, the IC50 (Cholinesterase) is reported as 9.16 µM and the IC50 (Acetylcholinesterase [1]) is reported as 9.82 µM.

In the case of `CN(CCCOc1ccc([N+](=O)[O-])cc1)C(=O)c1cnc(CC(=O)c2cccs2)nc1`, the IC50 (Cholinesterase) is reported as 10 µM, the IC50 (Acetylcholinesterase [1]) is reported as 0.88 µM and the inhibition (Acetylcholinesterase [3]) is reported as “Active”.

In the case of `C/C=C1\[C@H]2C=C(C)C[C@]1(N)c1ccc(=O)[nH]c1C2` [HUPERZINE A], the IC50 (Cholinesterase) is reported as > 10000 µM.

With `COc1ccc(C(=O)Cc2ncc(C(=O)N(C)CCCOc3ccc(C(F)(F)F)cc3)cn2)cc1` the IC50 (Cholinesterase) was 6.24 µM and the IC50 (Acetylcholinesterase [1]) was 29.8 µM.
